Test results reported in patent US20240360194A1, “New Peptides as Potent and Selective GIP Receptor Agonists” (Sanofi, priority 2021, published 2024).
Values after ≈ are worked out from the molar mass of the structure shown. Numbered stars: 1 amine (or outer) side, 2 acyl side, 3 side chain; on linkers, the order of the positions; unused ones are H or OH. Square brackets hold non-standard residues; d marks the D form. Side chains are listed from the residue outwards. Peptide text beside a SMILES is read from it. * marks the point of attachment. C18 diacid = O=C(O)CCCCCCCCCCCCCCCCC(=O)*; γGlu = O=C(O)[C@H](CCC(=O)[*:2])N[*:1]; dIva = CC[C@@](C)(N)C(=O)O; AEEA = NCCOCCOCC(=O)O; Aib = CC(C)(N)C(=O)O

Columns and labels:
[1] = Chemical stability assessment (UHPLC-UV purity loss on storage in solution); assay type: physicochemical; details: Chemical stability buffer system A: 20 mM phosphate buffer pH 7.4; ~300 μM
Description: Purity of a peptide batch was determined through UHPLC/MS prior to chemical stability measurement. The target concentration was 300 μM pure compound. Solutions from solid samples were prepared in the following buffer systems with a concentration of ˜300 μM compound based on the previously determined % purity: • Chemical stability buffer system A) 20 mM phosphate buffer pH 7.4, • Chemical stability buffer system B) 8 mM phosphate buffer pH 7.4, 14 mg/ml propylene glycol, 5.5 mg/ml phenol • Chemical stability buffer system C) 100 mM phosphate buffer pH 7.4, 2.7 mg/ml m-cresol
Prepared solutions were filtered through […] pore size and filled into sterilized glass containers under laminar flow conditions.
Glass containers were stored for 28 days at 5 and 40° C. After this time, the samples were centrifuged for 15 min at 2500 RCF. Then 1.5 μl of the undiluted supernatant were analysed with UHPLC-UV.
The chemical stability was rated through the relative loss of purity calculated by the equation: […]
The purity is calculated as
The analytical methods used were Analytical UHPLC Method B or C.
Peptide samples were prepared in Chemical stability buffer system A or B and stability was assessed as described in Methods.

[2] = target: T1, human GIP receptor (hGIPR) (Homo sapiens, UniProt P48546); test: Binding assay, displacement of [125I]GIP from HEK-293 membranes over-expressing GIPR (SPA); details: [125I]GIP displacement
T1 sequence (P48546 22-466): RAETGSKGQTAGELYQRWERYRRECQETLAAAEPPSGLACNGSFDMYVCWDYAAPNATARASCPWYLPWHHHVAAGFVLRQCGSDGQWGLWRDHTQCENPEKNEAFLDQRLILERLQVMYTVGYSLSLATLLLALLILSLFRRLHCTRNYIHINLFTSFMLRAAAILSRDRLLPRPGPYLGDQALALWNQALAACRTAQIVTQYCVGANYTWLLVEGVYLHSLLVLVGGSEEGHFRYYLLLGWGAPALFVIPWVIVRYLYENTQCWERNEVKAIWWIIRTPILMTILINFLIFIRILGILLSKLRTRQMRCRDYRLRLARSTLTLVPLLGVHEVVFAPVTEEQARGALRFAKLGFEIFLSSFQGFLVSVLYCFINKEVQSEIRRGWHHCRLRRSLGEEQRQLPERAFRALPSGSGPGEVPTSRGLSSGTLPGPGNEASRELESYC
How it was run: (§1)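 Membranes from HEK-293 cells over-expressing human GIPR or GLP-1R, isolated by homogenising, sonicating and ultracentrifuging at 100000×g into HEPES/EDTA/NaCl buffer with protease inhibitors, were used for binding.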

[3] = Solubility assessment (UHPLC-UV of supernatant, target 10 mg/ml); assay type: physicochemical; details: for Soluble amount: pH 7.4
How it was run: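 Peptides at 10 mg/ml (purity-corrected) in 100 mM phosphate pH 7.4, optionally with 2.7 mg/ml m-cresol; gentle agitation 1 h, then 5° C. overnight (24 h). Supernatant after 15 min centrifugation at 2500 RCF quantified by UHPLC-UV, with sequence-based extinction coefficients.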

[4] = ThT assay for the assessment of physical stability (fibrillation); assay type: physicochemical; details: ThT buffer system A: 100 mM phosphate buffer pH 7.4; 3 mg/ml, 37° C., shaking
Description: Low physical stability of a peptide solution may lead to amyloid fibril formation, which is observed as well-ordered, thread-like macromolecular structures in the sample, which eventually may lead to gel formation. Thioflavin T (ThT) is widely used to visualize and quantify the presence of misfolded protein aggregates [Biancalana et al., Biochim. Biophys. Acta 2010, 1804(7), 1405]. […] Enzymol. 1999, 309, 274]. The time course for fibril formation often follows the characteristic shape of a sigmoidal curve and can be separated into three regions: a lag phase, a fast growth phase, and a plateau phase. The typical fibril formation process starts with the lag phase in which the amount of partially folded peptide turned into fibrils is not significant enough to be detected. The lag-time corresponds to the time the critical mass of the nucleus is built. Afterwards, a drastic elongation phase follows, and fibril concentration increases rapidly. Investigations were carried out to determine fibrillation tendencies under stress conditions by shaking at 37° C. within Fluoroskan Ascent FL or Fluoroskan Ascent. For the tests in Fluoroskan Ascent (FL), 200 μl sample were placed into a 96-well mictrotiter plate PS, flat bottom, Greiner Fluotrac No. 655076. Plates were sealed with Scotch Tape (Qiagen). Samples were stressed by continuous cycles of 10 sec shaking at 960 rpm and 50 sec rest period at 37° C. The kinetic was monitored by measuring fluorescence intensity every 20 min. Peptides were diluted in a buffer system to a final concentration of 3 mg/ml. 20 μl of a 10.1 mM ThT solution in H2O were added to 2 ml of peptide solution to receive a final concentration of 100 μM ThT. For each sample eight replicates were tested. • ThT buffer system A) 100 mM phosphate buffer pH 7.4 • ThT buffer system B) 100 mM phosphate buffer pH 7.4, 2.7 mg/ml m-cresol Lag time in hours (h) in Thioflavin T (ThT) assay of peptide samples was determined in ThT buffer system A as described in Methods.

[5] = target: human GLP-1 receptor (hGLP-1R) (Homo sapiens, UniProt P43220); test: Binding assay, displacement of [125I]GLP-1 from HEK-293 membranes over-expressing GLP-1R (SPA); details: [125I]GLP-1 displacement
Sequence of human GLP-1 receptor (hGLP-1R) (P43220 24-463): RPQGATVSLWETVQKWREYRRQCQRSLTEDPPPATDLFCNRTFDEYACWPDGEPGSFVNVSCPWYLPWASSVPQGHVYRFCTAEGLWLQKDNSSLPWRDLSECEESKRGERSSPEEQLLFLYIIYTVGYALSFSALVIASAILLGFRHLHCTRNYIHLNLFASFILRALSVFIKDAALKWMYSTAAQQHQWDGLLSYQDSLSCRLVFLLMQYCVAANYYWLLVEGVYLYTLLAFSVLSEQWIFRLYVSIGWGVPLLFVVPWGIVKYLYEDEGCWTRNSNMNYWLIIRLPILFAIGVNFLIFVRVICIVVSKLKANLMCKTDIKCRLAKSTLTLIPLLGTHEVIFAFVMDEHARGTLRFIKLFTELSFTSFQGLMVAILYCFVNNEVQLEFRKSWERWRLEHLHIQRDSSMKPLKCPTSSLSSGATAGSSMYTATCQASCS
How it was run: as §1

Compound	Relative purity loss over 28 days at 40° C. [1] [%]	IC50 [2] [pM]	Soluble amount [3] [mg/mL]	solubility ([3]; pH 7.4, Soluble amount) [µg/mL]	Increase in FI [4]	Lag time before increase [4] [h]	IC50 [5] [pM]	Soluble amount ([3]; 24 h) [mg/mL]	solubility at 24 h ([3]; pH 7.4, Soluble amount) [µg/mL]
CC[C@H](C)[C@H](NC(=O)[C@H](CCCNC(=N)N)NC(=O)[C@H](CC(=O)O)NC(=O)[C@H](CCCCNC(=O)COCCOCCNC(=O)COCCOCCNC(=O)CC[C@H](NC(=O)CCCCCCCCCCCCCCCCC(=O)O)C(=O)O)NC(=O)C(C)(C)NC(=O)[C@@H](NC(=O)[C@H](CO)NC(=O)[C@H](CC(C)C)NC(=O)[C@H](CC(=O)O)NC(=O)[C@H](CO)NC(=O)[C@@H](NC(=O)[C@H](Cc1ccccc1)NC(=O)[C@@H](NC(=O)CNC(=O)[C@H](CCC(=O)O)NC(=O)C(C)(C)NC(=O)[C@@H](N)Cc1ccc(O)cc1)[C@@H](C)O)[C@@H](C)CC)[C@@H](C)CC)C(=O)N[C@@H](Cc1c[nH]cn1)C(=O)N[C@@H](CCC(N)=O)C(=O)NC(C)(C)C(=O)N[C@@H](CCC(=O)O)C(=O)N[C@@H](Cc1ccccc1)C(=O)N[C@H](C(=O)N[C@@H](CCC(=O)O)C(=O)N[C@@H](Cc1c[nH]c2ccccc12)C(=O)N[C@](C)(CC)C(=O)N[C@@H](CC(C)C)C(=O)N[C@@H](C)C(=O)N[C@@H](CCC(N)=O)C(=O)NCC(=O)N1CCC[C@H]1C(=O)N[C@@H](CO)C(=O)N[C@@H](CO)C(=O)NCC(=O)N[C@@H](C)C(=O)N1CCC[C@H]1C(=O)N1CCC[C@H]1C(=O)N1CCC[C@H]1C(=O)N[C@@H](CO)C(N)=O)[C@@H](C)CC [SEQ ID NO: 31, H2N-Y-Aib-E-G-T-F-I-S-D-L-S-I-Aib-K[{AEEA}2-gGlu-C18OH]-D-R-I-H-Q-Aib-E-F-I-E-W-Iva-L-A-Q-G-P-S-S-G-A-P-P-P-S-NH2] (H-Y[Aib]EGTFISDLSI[Aib]K([AEEA-AEEA-γGlu-C18 diacid])DRIHQ[Aib]EFIEW[dIva]LAQGPSSGAPPPS-NH2)	6.2	300	9.6	> 10000	no	>45	–	–	–
CC[C@H](C)[C@H](NC(=O)[C@H](Cc1ccccc1)NC(=O)[C@H](CCC(=O)O)NC(=O)C(C)(C)NC(=O)[C@H](CCC(N)=O)NC(=O)[C@H](Cc1c[nH]cn1)NC(=O)C(C)(C)NC(=O)[C@H](CCCNC(=N)N)NC(=O)[C@H](CC(=O)O)NC(=O)[C@H](CCCCNC(=O)COCCOCCNC(=O)COCCOCCNC(=O)CC[C@H](NC(=O)CCCCCCCCCCCCCCCCC(=O)O)C(=O)O)NC(=O)C(C)(C)NC(=O)[C@@H](NC(=O)[C@H](CO)NC(=O)[C@H](CC(C)C)NC(=O)[C@H](CC(=O)O)NC(=O)[C@H](CO)NC(=O)[C@@H](NC(=O)[C@H](Cc1ccccc1)NC(=O)[C@@H](NC(=O)CNC(=O)[C@H](CCC(=O)O)NC(=O)C(C)(C)NC(=O)[C@@H](N)Cc1ccc(O)cc1)[C@@H](C)O)[C@@H](C)CC)[C@@H](C)CC)C(=O)N[C@@H](CCC(=O)O)C(=O)N[C@@H](Cc1c[nH]c2ccccc12)C(=O)N[C@@H](CC(C)C)C(=O)N[C@@H](CC(C)C)C(=O)N[C@@H](C)C(=O)N[C@@H](CCC(N)=O)C(=O)N[C@@H](CCCNC(=N)N)C(=O)N1CCC[C@H]1C(=O)N[C@@H](CO)C(=O)N[C@@H](CO)C(=O)NCC(=O)N[C@@H](C)C(=O)N1CCC[C@H]1C(=O)N1CCC[C@H]1C(=O)N1CCC[C@H]1C(=O)N[C@@H](CO)C(N)=O [SEQ ID NO: 22, H2N-Y-Aib-E-G-T-F-I-S-D-L-S-I-Aib-K[{AEEA}2-gGlu-C18OH]-D-R-Aib-H-Q-Aib-E-F-I-E-W-L-L-A-Q-R-P-S-S-G-A-P-P-P-S-NH2] (H-Y[Aib]EGTFISDLSI[Aib]K([AEEA-AEEA-γGlu-C18 diacid])DR[Aib]HQ[Aib]EFIEWLLAQRPSSGAPPPS-NH2)	6.1	1000	–	–	no	>45	–	–	–
CC[C@H](C)[C@H](NC(=O)[C@H](CCCNC(=N)N)NC(=O)[C@H](CC(=O)O)NC(=O)[C@H](CCCCNC(=O)COCCOCCNC(=O)COCCOCCNC(=O)CC[C@H](NC(=O)CCCCCCCCCCCCCCCCC(=O)O)C(=O)O)NC(=O)C(C)(C)NC(=O)[C@@H](NC(=O)[C@H](CO)NC(=O)[C@H](CC(C)C)NC(=O)[C@H](CC(=O)O)NC(=O)[C@H](CO)NC(=O)[C@@H](NC(=O)[C@@](C)(CC)NC(=O)[C@@H](NC(=O)CNC(=O)[C@H](CCC(=O)O)NC(=O)C(C)(C)NC(=O)[C@@H](N)Cc1ccc(O)cc1)[C@@H](C)O)[C@@H](C)CC)[C@@H](C)CC)C(=O)N[C@@H](Cc1c[nH]cn1)C(=O)N[C@@H](CCC(N)=O)C(=O)NC(C)(C)C(=O)N[C@@H](CCC(=O)O)C(=O)N[C@@H](Cc1ccccc1)C(=O)N[C@H](C(=O)N[C@@H](CCC(=O)O)C(=O)N[C@@H](Cc1c[nH]c2ccccc12)C(=O)N[C@@H](CC(C)C)C(=O)N[C@@H](CC(C)C)C(=O)N[C@@H](C)C(=O)N[C@@H](CCC(N)=O)C(=O)N[C@@H](CCCNC(=N)N)C(=O)NCC(N)=O)[C@@H](C)CC [SEQ ID NO: 16, H2N-Y-Aib-E-G-T-Iva-I-S-D-L-S-I-Aib-K[{AEEA}2-gGlu-C18OH]-D-R-I-H-Q-Aib-E-F-I-E-W-L-L-A-Q-R-G-NH2]	–	100	–	5400 (≈ 1260 µM)	no	>45	174000	–	–
CC[C@H](C)[C@H](NC(=O)[C@H](CCCNC(=N)N)NC(=O)[C@H](CCC(=O)O)NC(=O)[C@H](CCCCNC(=O)COCCOCCNC(=O)COCCOCCNC(=O)CC[C@H](NC(=O)CCCCCCCCCCCCCCCCC(=O)O)C(=O)O)NC(=O)C(C)(C)NC(=O)[C@@H](NC(=O)[C@H](CO)NC(=O)[C@H](CC(C)C)NC(=O)[C@H](CC(=O)O)NC(=O)[C@H](CO)NC(=O)[C@@H](NC(=O)[C@H](Cc1ccccc1)NC(=O)[C@@H](NC(=O)CNC(=O)[C@H](CCC(=O)O)NC(=O)C(C)(C)NC(=O)[C@@H](N)Cc1ccc(O)cc1)[C@@H](C)O)[C@@H](C)CC)[C@@H](C)CC)C(=O)N[C@@H](Cc1c[nH]cn1)C(=O)N[C@@H](CCC(N)=O)C(=O)NC(C)(C)C(=O)N[C@@H](CCC(=O)O)C(=O)N[C@@H](Cc1ccccc1)C(=O)N[C@H](C(=O)N[C@@H](CCC(=O)O)C(=O)N[C@@H](Cc1c[nH]c2ccccc12)C(=O)N[C@@H](CC(C)C)C(=O)N[C@@H](CC(C)C)C(=O)N[C@@H](C)C(=O)N[C@@H](CCC(N)=O)C(=O)NCC(=O)N1CCC[C@H]1C(=O)N[C@@H](CO)C(=O)N[C@@H](CO)C(=O)NCC(=O)N[C@@H](C)C(=O)N1CCC[C@H]1C(=O)N1CCC[C@H]1C(=O)N1CCC[C@H]1C(=O)N[C@@H](CO)C(N)=O)[C@@H](C)CC [SEQ ID NO: 21, H2N-Y-Aib-E-G-T-F-I-S-D-L-S-I-Aib-K[{AEEA}2-gGlu-C18OH]-E-R-I-H-Q-Aib-E-F-I-E-W-L-L-A-Q-G-P-S-S-G-A-P-P-P-S-NH2] (H-Y[Aib]EGTFISDLSI[Aib]K([AEEA-AEEA-γGlu-C18 diacid])ERIHQ[Aib]EFIEWLLAQGPSSGAPPPS-NH2)	–	800	–	–	no	>45	–	>10.0	10100 (≈ 2030 µM)
